Measured values taken from doi:10.1101/2025.03.30.646141v1 (biorxiv, 2025).

What was measured:
APH(3’)-IIb WT [1] = target: T1, APH(3’)-IIb WT (Pseudomonas aeruginosa, UniProt Q9HWR2); experiment: ITC; assay type: binding
T1 sequence (Q9HWR2 1-268): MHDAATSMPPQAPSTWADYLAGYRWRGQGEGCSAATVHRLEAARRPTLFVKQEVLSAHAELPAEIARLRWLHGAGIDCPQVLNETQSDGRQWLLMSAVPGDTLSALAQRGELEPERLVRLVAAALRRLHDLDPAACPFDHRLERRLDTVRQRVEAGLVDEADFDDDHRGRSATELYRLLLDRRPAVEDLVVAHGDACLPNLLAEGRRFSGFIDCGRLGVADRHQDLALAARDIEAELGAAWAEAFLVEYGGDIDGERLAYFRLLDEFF

APH(3’)-IIb WT [2] = target: T1, APH(3’)-IIb WT; experiment: biochemical
APH(3’)-IIb WT [3] = target: T2, APH(3’)-IIb WT (Pseudomonas aeruginosa, UniProt Q9HWR2, M95L); experiment: PK/LDH coupled assay; assay type: biochemical; conditions: 100 µM MgATP, Tris buffer pH 7.5, 25 °C
T2 sequence (Q9HWR2 1-268 M95L): T1 sequence (Q9HWR2 1-268)

Structure (SMILES) | Kd (APH(3’)-IIb WT [1]) | Kd (APH(3’)-IIb WT [2]) | Km (APH(3’)-IIb WT [3])
Nc1ncnc2c1ncn2[C@@H]1O[C@H](COP(=O)(O)OP(=O)(O)O)[C@@H](O)[C@H]1O [ADP] | 4.1 ± 0.5 µM |  | 
Nc1ncnc2c1ncn2[C@@H]1O[C@H](COP(=O)(O)OP(=O)(O)OP(=O)(O)O)[C@@H](O)[C@H]1O [ATP] | 10 ± 0.7 µM |  | 
CN[C@@H]1[C@@H](O)[C@@H](O[C@@H]2[C@@H](O)[C@H](O[C@H]3O[C@H]([C@@H](C)O)[C@@H](O)[C@H](O)[C@H]3N)[C@@H](N)C[C@H]2N)OC[C@]1(C)O [Geneticin] |  | 1.59 ± 0.31 µM | 
NCC[C@H](O)C(=O)N[C@@H]1C[C@H](N)[C@@H](O[C@H]2O[C@H](CN)[C@@H](O)[C@H](O)[C@H]2O)[C@H](O)[C@H]1O[C@H]1O[C@H](CO)[C@@H](O)[C@H](N)[C@H]1O [amikacin] | 177 ± 22 µM |  | 54.5 ± 21.5 µM
CNC(C)[C@@H]1CC[C@@H](N)[C@@H](O[C@H]2[C@H](O)[C@@H](O[C@H]3OC[C@](C)(O)[C@H](NC)[C@H]3O)[C@H](N)C[C@@H]2N)O1 (stereo partly shown) [gentamicin] |  | 0.059 ± 0.005 µM | 
NC[C@H]1O[C@H](O[C@H]2[C@H](O)[C@@H](O[C@H]3O[C@H](CO)[C@@H](O)[C@H](N)[C@H]3O)[C@H](N)C[C@@H]2N)[C@H](O)[C@@H](O)[C@@H]1O [kanamycin A] |  |  | 0.17 ± 0.06 µM
NC[C@H]1O[C@H](O[C@H]2[C@H](O)[C@@H](O[C@H]3O[C@H](CO)[C@@H](O)[C@H](N)[C@H]3O)[C@H](N)C[C@@H]2N)[C@H](N)[C@@H](O)[C@@H]1O [kanamycin B] | 0.002 ± 0.001 µM |  | 0.05 ± 0.03 µM
NC[C@@H]1O[C@H](O[C@H]2[C@@H](O)[C@H](O[C@@H]3[C@@H](O)[C@H](N)C[C@H](N)[C@H]3O[C@H]3O[C@H](CN)[C@@H](O)[C@H](O)[C@H]3N)O[C@@H]2CO)[C@H](N)[C@@H](O)[C@@H]1O [neomycin] | 0.012 ± 0.002 µM |  | 0.07 ± 0.06 µM
NC[C@@H]1O[C@H](O[C@H]2[C@@H](O)[C@H](O[C@@H]3[C@@H](O)[C@H](N)C[C@H](N)[C@H]3O[C@H]3O[C@H](CO)[C@@H](O)[C@H](O)[C@H]3N)O[C@@H]2CO)[C@H](N)[C@@H](O)[C@@H]1O [paromomycin] | 0.173 ± 0.008 µM |  | 0.53 ± 0.21 µM
NC[C@H]1O[C@H](O[C@H]2[C@H](O[C@@H]3O[C@H](CO)[C@@H](O)[C@H]3O)[C@@H](O)[C@H](N)C[C@@H]2N)[C@H](N)[C@@H](O)[C@@H]1O [ribostamycin] | 0.01 ± 0.001 µM |  | 0.21 ± 0.17 µM
NC[C@H]1O[C@H](O[C@H]2[C@H](O)[C@@H](O[C@H]3O[C@H](CO)[C@@H](O)[C@H](N)[C@H]3O)[C@H](N)C[C@@H]2N)[C@H](N)C[C@@H]1O [tobramycin] | 0.023 µM |  | 
